Results: ChEMBL document CHEMBL3091331, “Aminothiazole-featured pirinixic acid derivatives as dual 5-lipoxygenase and microsomal prostaglandin E2 synthase-1 inhibitors with improved potency and efficiency in vivo” (J Med Chem, 2013)

Legend:
[1] = tested on: Mus musculus; assay: Antiinflammatory activity in CD-1 mouse peritonitis model assessed as reduction in vascular permeability at 10 mg/kg, ip administered 30 mins prior to zymosan-challenge measured after 4 hrs relative to vehicle-treated control; type: functional; settings: CD-1, ip, route intraperitoneal
[2] = tested on: Mus musculus; assay: Reduction of PGE2 biosynthesis in CD-1 mouse peritonitis model at 10 mg/kg, ip administered 30 mins prior to zymosan-challenge measured after 4 hrs by RIA relative to vehicle-treated control; type: functional; settings: CD-1, ip, route intraperitoneal
[3] = Metabolic stability in Sprague-Dawley rat liver microsomes assessed as compound remaining at 10 uM after 60 mins by HPLC analysis; type: ADME; settings: read-out: Stability
[4] = (§1) Inhibition of reactive oxygen species generation in PMA-stimulated human polymorphonuclear leukocytes incubated for 15 mins prior to PMA-challenge by fluorescence assay; type: functional
[5] = species: Homo sapiens; assay: as §1; type: functional
[6] = target: T1, Polyunsaturated fatty acid lipoxygenase ALOX15 (Homo sapiens) (UniProt P16050); assay: Inhibition of 15-lipoxygenase in human polymorphonuclear leukocytes using arachidonic acid as substrate assessed as remaining activity at 10 uM incubated 15 mins prior to substrate addition measured after 10 mins by HPLC analysis relative to control; type: cell-based
T1 sequence (whole entry): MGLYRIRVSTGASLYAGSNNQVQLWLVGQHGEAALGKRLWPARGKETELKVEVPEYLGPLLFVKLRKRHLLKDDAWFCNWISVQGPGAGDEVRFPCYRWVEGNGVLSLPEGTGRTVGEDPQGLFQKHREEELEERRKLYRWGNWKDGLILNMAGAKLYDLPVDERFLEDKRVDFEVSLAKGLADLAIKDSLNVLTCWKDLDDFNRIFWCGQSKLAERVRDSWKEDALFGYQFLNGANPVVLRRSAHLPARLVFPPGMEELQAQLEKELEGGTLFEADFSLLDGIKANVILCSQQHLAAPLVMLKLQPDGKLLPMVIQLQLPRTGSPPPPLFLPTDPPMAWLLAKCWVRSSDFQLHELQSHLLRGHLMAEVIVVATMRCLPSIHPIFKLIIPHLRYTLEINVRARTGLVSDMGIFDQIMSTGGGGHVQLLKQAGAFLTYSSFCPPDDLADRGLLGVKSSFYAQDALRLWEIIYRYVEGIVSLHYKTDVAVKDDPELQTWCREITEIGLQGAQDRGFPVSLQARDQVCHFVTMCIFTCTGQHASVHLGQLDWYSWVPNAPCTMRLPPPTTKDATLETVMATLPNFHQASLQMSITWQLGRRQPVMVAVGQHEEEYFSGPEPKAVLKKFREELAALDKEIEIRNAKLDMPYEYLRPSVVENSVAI

[7] = target: T2, Polyunsaturated fatty acid lipoxygenase ALOX12 (Homo sapiens) (UniProt P18054); assay: Inhibition of 12-lipoxygenase in human polymorphonuclear leukocytes using arachidonic acid as substrate assessed as remaining activity at 10 uM incubated 15 mins prior to substrate addition measured after 10 mins by HPLC analysis relative to control; type: cell-based
T2 sequence (whole entry): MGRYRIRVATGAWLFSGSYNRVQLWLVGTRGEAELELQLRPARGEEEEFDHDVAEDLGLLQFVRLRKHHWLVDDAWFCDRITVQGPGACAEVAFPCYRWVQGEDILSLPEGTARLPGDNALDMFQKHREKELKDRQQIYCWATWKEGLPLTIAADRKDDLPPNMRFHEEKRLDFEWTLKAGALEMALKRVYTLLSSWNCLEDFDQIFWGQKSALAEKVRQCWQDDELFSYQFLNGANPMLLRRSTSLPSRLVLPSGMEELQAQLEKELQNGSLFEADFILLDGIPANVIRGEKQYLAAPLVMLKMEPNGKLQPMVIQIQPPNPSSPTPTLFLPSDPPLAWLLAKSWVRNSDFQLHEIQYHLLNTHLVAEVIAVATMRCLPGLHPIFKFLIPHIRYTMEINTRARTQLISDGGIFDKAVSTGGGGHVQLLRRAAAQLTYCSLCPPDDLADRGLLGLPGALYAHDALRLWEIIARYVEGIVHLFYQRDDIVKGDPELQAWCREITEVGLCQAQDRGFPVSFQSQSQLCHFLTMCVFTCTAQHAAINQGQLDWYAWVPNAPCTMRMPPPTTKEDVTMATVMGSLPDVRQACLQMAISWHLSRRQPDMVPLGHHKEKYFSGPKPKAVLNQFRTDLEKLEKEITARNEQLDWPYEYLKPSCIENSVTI

[8] = target: T3, Polyunsaturated fatty acid 5-lipoxygenase (Homo sapiens, UniProt P09917); assay: Inhibition of human recombinant 5-lipoxygenase expressed in Escherichia coli BL21 using arachidonic acid as substrate incubated 5 to 10 mins prior to substrate addition measured after 10 mins by HPLC analysis
T3 sequence (P09917 whole entry): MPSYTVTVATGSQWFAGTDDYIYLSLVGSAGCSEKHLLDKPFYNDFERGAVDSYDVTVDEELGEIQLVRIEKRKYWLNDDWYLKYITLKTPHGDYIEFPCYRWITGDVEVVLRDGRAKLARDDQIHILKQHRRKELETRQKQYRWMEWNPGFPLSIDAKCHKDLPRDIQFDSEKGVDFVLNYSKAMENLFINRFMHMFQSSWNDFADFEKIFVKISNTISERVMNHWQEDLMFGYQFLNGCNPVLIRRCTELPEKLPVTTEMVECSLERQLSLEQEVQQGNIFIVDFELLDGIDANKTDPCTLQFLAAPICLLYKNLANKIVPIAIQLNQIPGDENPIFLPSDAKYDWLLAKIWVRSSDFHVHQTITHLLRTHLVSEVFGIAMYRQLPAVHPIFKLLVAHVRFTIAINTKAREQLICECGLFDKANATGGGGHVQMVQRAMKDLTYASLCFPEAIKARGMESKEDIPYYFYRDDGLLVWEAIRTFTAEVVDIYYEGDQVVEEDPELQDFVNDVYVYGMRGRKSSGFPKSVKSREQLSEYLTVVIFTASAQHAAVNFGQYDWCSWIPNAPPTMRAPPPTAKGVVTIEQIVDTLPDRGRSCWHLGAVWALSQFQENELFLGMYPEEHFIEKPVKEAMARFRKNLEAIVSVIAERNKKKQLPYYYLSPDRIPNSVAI

[9] = Cytotoxicity against human polymorphonuclear leukocytes at 10 uM after 1 hr by light microscopic analysis

`CCCCCCC(Sc1nc(Cl)cc(Nc2nc(-c3ccc4ccccc4c3)cs2)n1)C(=O)O` (racemic) gave an inhibition in vivo at 10 mg/kg [1] of 57%, an inhibition in vivo at 10 mg/kg [2] of 46% and a remaining at 1 h, 10 µM [3] of 77%. For the same compound, the IC50 [4] was 8 µM, the inhibition [5] was “Dose-dependent effect” and the Activity [6] was 84%. For the same compound, the Activity [7] was 168%, the IC50 [8] was 0.3 µM and the Activity [9] was “Non-toxic”.
